Data taken from patent publication US20140323504A1, “Pyrazolo[4,3-c]Pyridine Derivatives As Kinase Inhibitors” (Cellzome Limited, priority 2011, published 2014).

Columns and labels:
[1] = target: T1, JAK2 (Homo sapiens, UniProt O60674); experiment: Kinobeads assay with antibody detection, JAK2; assay type: binding; settings: mixed Molt4/Ramos lysate, read-out: JAK2 inhibition value (IC50)
T1 construct: endogenous in cells; host or cells: mixed Molt4/Ramos cell lysate (1:2)
Protocol: (§1) The compounds of the present invention as described in the previous examples were tested in a Kinobeads™ assay as described for ZAP-70 (WO-A 2007/137867). Briefly, test compounds (at various concentrations) and the affinity matrix with the immobilized aminopyrido-pyrimidine ligand 24 were added to cell lysate aliquots and allowed to bind to the proteins in the lysate sample. After the incubation time the beads with captured proteins were separated from the lysate. Bound proteins were then eluted and the presence of JAK1; JAK2, JAK3 and TYK2 was detected and quantified using specific antibodies in a dot blot procedure and the Odyssey infrared detection system. Dose response curves for individual kinases were generated and IC50 values calculated. Kinobeads™ assays for ZAP-70 (WO-A 2007/137867) and for kinase selectivity profiling (WO-A 2006/134056) have been previously described.
(§2) 5×DP buffer: 250 mM Tris-HCl pH 7.4, 25% Glycerol, 7.5 mM MgCl2, 750 mM NaCl, 5 mM Na3VO4; filter the 5×DP buffer through a 0.22 μm filter and store in aliquot at −80° C. The 5×DP buffer is diluted with H2O to 1×DP buffer containing 1 mM DTT and 25 mM NaF.
(§3) Stock solutions of test compounds were prepared in DMSO. In a 96 well plate 30 μL solution of diluted test compounds at 5 mM in DMSO were prepared. Starting with this solution a 1:3 dilution series (9 steps) was prepared. For control experiments (no test compound) a buffer containing 2% DMSO was used.
(§4) Molt4 cells (ATCC catalogue number CRL-1582) and Ramos cells (ATCC catalogue number CRL-1596) were grown in 1 L Spinner flasks (Integra Biosciences, #182101) in suspension in RPMI 1640 medium (Invitrogen, #21875-034) supplemented with 10% Fetal Bovine Serum (Invitrogen) at a density between 0.15×10^6 and 1.2×10^6 cells/mL. Cells were harvested by centrifugation, washed once with 1×PBS buffer (Invitrogen, #14190-094) and cell pellets were frozen in liquid nitrogen and subsequently stored at −80° C. Cells were homogenized in a Potter S homogenizer in lysis buffer: 50 mM Tris-HCl, 0.8% NP40, 5% glycerol, 150 mM NaCl, 1.5 mM MgCl2, 25 mM NaF, 1 mM sodium vanadate, 1 mM DTT, pH 7.5. One complete EDTA-free tablet (protease inhibitor cocktail, Roche Diagnostics, 1873580) per 25 mL buffer was added. The material was dounced 10 times using a mechanized POTTER S, transferred to 50 mL falcon tubes, incubated for 30 minutes on ice and spun down for 10 minutes at 20,000 g at 4° C. (10,000 rpm in Sorvall SLA600, precooled). The supernatant was transferred to an ultracentrifuge (UZ)-polycarbonate tube (Beckmann, 355654) and spun for 1 hour at 100.000 g at 4° C. (33.500 rpm in Ti50.2, precooled). The supernatant was transferred again to a fresh 50 mL falcon tube, the protein concentration was determined by a Bradford assay (BioRad) and samples containing 50 mg of protein per aliquot were prepared. The samples were immediately used for experiments or frozen in liquid nitrogen and stored frozen at −80° C.
(§5) Cell lysate (approximately 50 mg protein per plate) was thawed in a water bath at room temperature and then stored on ice. To the thawed cell lysate 1×DP 0.8% NP40 buffer containing protease inhibitors (1 tablet for 25 mL buffer; EDTA-free protease inhibitor cocktail; Roche. Diagnostics 1873580) was added in order to reach a final protein concentration of 10 mg/mL total protein. The diluted cell lysate was stored on ice. Mixed Molt4Ramos lysate was prepared by combining one volume of Molt4 lysate and two volumes of Ramos lysate (ratio 1:2).
(§6) Plates were sealed and incubated for 3 hours in a cold room on a plate shaker (Heidolph tiramax 1000) at 750 rpm. Afterwards the plate was washed 3 times with 230 μL washing buffer (1×DP 0.4% NP40). The filter plate was placed on top of a collection plate (Greiner bio-one, PP-microplate 96 well V-shape, 65120) and the beads were then eluted with 20 μL of sample buffer (100 mM Tris, pH 7.4, 4% SDS, 0.00025% bromophenol blue, 20% glycerol, 50 mM DTT). […]

[2] = target: T2, Tyk2 (Homo sapiens, UniProt P29597); experiment: Kinobeads assay with antibody detection, TYK2; assay type: binding; settings: mixed Molt4/Ramos lysate, read-out: Tyk2 inhibition value (IC50)
T2 construct: endogenous in cells; host or cells: mixed Molt4/Ramos cell lysate (1:2)
T2 sequence (P29597 whole entry): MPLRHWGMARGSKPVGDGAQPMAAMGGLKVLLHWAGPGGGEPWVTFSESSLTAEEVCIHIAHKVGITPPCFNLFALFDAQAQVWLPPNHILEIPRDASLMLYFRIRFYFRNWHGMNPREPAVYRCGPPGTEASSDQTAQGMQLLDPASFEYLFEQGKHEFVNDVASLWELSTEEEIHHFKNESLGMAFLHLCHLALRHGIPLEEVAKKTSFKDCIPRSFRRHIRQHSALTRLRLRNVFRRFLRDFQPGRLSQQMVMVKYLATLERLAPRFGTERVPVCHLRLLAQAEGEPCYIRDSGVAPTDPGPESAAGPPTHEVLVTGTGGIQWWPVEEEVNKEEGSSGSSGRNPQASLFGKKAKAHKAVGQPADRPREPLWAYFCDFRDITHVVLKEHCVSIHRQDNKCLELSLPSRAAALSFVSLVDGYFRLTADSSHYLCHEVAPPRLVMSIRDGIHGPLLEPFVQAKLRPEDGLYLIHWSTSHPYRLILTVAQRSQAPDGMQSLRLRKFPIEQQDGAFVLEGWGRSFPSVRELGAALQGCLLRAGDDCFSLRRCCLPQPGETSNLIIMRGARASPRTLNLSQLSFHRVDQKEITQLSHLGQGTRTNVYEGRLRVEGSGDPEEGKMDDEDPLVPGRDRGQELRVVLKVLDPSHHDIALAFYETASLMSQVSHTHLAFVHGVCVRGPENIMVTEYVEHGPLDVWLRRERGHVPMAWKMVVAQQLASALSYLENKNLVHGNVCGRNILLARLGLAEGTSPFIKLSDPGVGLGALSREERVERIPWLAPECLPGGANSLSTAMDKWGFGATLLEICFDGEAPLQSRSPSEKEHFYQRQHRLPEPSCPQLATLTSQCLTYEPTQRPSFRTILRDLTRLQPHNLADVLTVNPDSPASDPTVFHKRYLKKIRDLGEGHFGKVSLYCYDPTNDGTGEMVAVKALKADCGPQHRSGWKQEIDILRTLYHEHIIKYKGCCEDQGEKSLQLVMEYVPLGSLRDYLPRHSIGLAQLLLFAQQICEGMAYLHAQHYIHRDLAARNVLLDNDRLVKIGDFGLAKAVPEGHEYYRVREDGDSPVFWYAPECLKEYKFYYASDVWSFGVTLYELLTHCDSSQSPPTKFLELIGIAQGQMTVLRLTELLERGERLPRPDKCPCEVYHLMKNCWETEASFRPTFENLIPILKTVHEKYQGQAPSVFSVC
Protocol: as §1, §2, §3, §4, §5, §6

[3] = test system: STAT5 phosphorylation in IL-2 stimulated YT cells; experiment: pSTAT5 cell assay (IL-2 stimulated YT cells, AlphaScreen); assay type: cell-based; settings: IL-2 stimulated human YT cells, 1 h compound incubation
Excerpt: STAT5 phosphorylation represents one of the proximal events in the signalling cascade downstream of JAK3 activation. Therefore STAT5 phosphorylation is an appropriate readout to assess the mechanistic effect of JAK3 inhibition. Stimulation of human YT cells, an NK-like cell line, with interleukin-2 (IL-2) results in phosphorylation of STATS at tyrosine residue 694 (Tyr694) that can be quantitatively measured by immunodetection with specific antibodies and an appropriate detection method, in this case AlphaScreen assay technology.
Human YT cells were grown in RPMI medium (Lonza, BE12-167) with 2 mM L-Glutamine (Invitrogen, 25030-024) and 10% heat-inactivated FBS (Invitrogen, 10106-169) and kept in a humidified incubator (37° C., 5% CO2). Cells were harvested by centrifugation, washed once with HBSS (Invitrogen, 14180-046), resuspended in HESS at 1.5×10^6 cells/ml and 0.9×10^4 cells were seeded in 6 μl per well in a 96 well White plate (PerkinElmer, 6005569).
Test compounds were dissolved in DMSO and a 1:3 dilution series (9 steps) was prepared. To generate a dose response curve, […] of fourfold concentrated compound in 4% DMSO/HBSS were added to each cell sample in the 96 well plate resulting in a final DMSO concentration of 1% DMSO. Cells were incubated for one hour in a humidified incubator (37° C., 5% CO2). To each well 3 μl of a fourfold concentrated IL-2 solution (Recombinant human IL-2, Peprotech 200-02; 120 nM solution in HBSS) was added and incubated for 30 minutes at room temperature. Cells were lysed by adding 3 μl of 5× lysis buffer (SureFire lysis buffer; Perkin Elmer, TGRS5S10K) and incubated for 10 minutes at room temperature with gentle shaking.
For signal detection by AlphaScreen® technology the SureFire phospho-STAT5 (Tyr694Tyr699) kit was used according to instructions provided by the manufacturer (Perkin Elmer, TGRS5S10K). Acceptor beads were added as recommended by the manufacturer (Reactivation buffer/Activation buffer/Acceptor beads at a ratio of 40:10:1) and incubated at room temperature for 1.5 hours with gentle shaking. Then donor beads were added as recommended (Dilution buffer/Donor beads at a ratio of 20:1) and incubated at room temperature for 1.5 hours with gentle shaking. Plates were read on an Envision instrument (Perkin Elmer) with the AlphaScreen protocol. Data were analysed in BioAssay using the nonlinear regression for a sigmoidal dose-response with a variable slope.

T1 sequence (O60674 whole entry): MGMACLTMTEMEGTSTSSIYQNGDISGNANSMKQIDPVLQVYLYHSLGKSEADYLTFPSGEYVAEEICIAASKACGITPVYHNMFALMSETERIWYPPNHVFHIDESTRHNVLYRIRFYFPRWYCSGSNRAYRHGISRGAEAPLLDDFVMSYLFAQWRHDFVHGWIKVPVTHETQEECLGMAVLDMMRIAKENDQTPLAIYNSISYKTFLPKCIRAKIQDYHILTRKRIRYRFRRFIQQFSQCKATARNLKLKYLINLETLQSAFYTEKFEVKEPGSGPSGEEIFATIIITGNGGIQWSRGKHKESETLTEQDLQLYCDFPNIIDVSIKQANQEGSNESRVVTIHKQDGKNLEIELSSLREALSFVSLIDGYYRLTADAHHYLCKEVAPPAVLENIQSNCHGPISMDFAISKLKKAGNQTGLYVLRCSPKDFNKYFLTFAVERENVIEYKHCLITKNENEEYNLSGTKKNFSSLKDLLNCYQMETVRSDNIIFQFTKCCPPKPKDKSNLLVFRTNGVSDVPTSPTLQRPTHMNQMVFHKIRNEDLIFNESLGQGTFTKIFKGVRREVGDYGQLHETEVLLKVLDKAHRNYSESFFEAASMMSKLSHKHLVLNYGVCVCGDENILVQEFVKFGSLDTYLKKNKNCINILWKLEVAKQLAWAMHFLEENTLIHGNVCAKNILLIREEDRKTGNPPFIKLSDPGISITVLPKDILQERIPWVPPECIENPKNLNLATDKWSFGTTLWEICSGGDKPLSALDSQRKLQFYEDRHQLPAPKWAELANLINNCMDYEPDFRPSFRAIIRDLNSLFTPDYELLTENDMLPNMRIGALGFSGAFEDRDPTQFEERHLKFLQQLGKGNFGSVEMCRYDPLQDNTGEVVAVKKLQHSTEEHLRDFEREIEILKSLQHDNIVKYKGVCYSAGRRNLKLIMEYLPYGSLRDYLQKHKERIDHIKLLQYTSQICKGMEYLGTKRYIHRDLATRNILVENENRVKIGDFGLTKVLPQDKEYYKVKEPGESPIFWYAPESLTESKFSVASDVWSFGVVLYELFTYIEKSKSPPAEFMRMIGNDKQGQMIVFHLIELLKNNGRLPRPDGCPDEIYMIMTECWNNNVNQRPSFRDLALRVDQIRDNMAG

Structure (SMILES)	IC50 [1]	IC50 [2]	IC50 [3]
C=CC(=O)Nc1cccc(Cn2ncc3cnc(Nc4cnn(C)c4)nc32)c1 [Example 1, N-(3-((6-((1-Methyl-1H-pyrazol-4-yl)amino)-1H-pyrazolo[3,4-d]pyrimidin-1-yl)methyl)phenyl)acrylamide]	> 10 µM	> 10 µM	0.031 µM
C=C(C)C(=O)Nc1cccc(Cn2ncc3cnc(Nc4cnn(C)c4)nc32)c1 [Example 5, N-(3-((6-((1-Methyl-1H-pyrazol-4-yl)amino)-1H-pyrazolo[3,4-d]pyrimidin-1-yl)methyl)phenyl)methacrylamide]	> 10 µM	> 10 µM	2 µM
C#CC(=O)Nc1cccc(Cn2ncc3cnc(Nc4cnn(C)c4)nc32)c1 [Example 3, N-(3-((6-((1-Methyl-1H-pyrazol-4-yl)amino)-1H-pyrazolo[3,4-d]pyrimidin-1-yl)methyl)phenyl)propiolamide]	> 10 µM	6.96 µM	0.033 µM
C=CS(=O)(=O)Nc1cccc(Cn2ncc3cnc(Nc4cnn(C)c4)nc32)c1 [Example 4, N-(3-((6-((1-Methyl-1H-pyrazol-4-yl)amino)-1H-pyrazolo[3,4-d]pyrimidin-1-yl)methyl)phenyl)ethenesulfonamide]	> 10 µM	6.13 µM	0.074 µM
C=CC(=O)Nc1cc(Cn2ncc3cnc(Nc4cnn(C)c4)nc32)ccc1F [Example 2, […]]	> 10 µM	> 10 µM	0.378 µM
CC(=O)Nc1cccc(Cn2ncc3cnc(Nc4cnn(C)c4)nc32)c1 [compound 2, N-(3-((6-((1-methyl-1H-pyrazol-4-yl)amino)-1H-pyrazolo[3,4-d]pyrimidin-1-yl)methyl)phenyl)acetamide, reference compound]	> 10 µM	> 10 µM	–
C=CS(=O)(=O)Nc1cccc(Cn2ccc3cnc(Nc4cnn(C)c4)nc32)c1 [Example 7, N-(3-((2-((1-Methyl-1H-pyrazol-4-yl)amino)-7H-pyrrolo[2,3-d]pyrimidin-7-yl)methyl)phenyl)ethenesulfonamide]	> 10 µM	0.901 µM	0.079 µM
